Earlier results on two molecules are cited in US20190000850A1, “COMBINATION CANCER THERAPY” (The Regents of the University of California, priority 2015, published 2019).

pIC50: −log10 of the molar value.

One series addresses Chk2 (Homo sapiens, UniProt O96017). Conditions: read-out: IC50 against Chk2; cited from earlier work.
For another series, the target named is T1, Chk1 (Homo sapiens, UniProt O14757).
T1 sequence (O14757 1-476): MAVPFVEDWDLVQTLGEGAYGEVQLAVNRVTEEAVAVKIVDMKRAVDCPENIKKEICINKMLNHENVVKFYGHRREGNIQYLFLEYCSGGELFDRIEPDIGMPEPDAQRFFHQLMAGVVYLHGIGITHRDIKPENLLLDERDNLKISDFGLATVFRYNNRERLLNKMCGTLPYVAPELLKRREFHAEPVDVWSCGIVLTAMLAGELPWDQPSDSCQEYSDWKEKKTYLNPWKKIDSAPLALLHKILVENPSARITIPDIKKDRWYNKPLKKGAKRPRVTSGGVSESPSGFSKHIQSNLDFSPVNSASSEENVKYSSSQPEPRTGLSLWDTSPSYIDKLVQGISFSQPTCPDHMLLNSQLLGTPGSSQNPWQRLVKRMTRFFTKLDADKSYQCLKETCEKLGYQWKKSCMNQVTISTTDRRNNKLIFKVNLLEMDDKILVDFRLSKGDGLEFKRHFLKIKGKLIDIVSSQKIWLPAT
Conditions: read-out: IC50 against primary target (Chk1); cited from earlier work.

The subject of the next series is PKC. Conditions: cited from earlier work.
Another series concerns the target cdc2 (Homo sapiens, UniProt P06493). Conditions: cited from earlier work.

Chain of Chk2 (O96017 whole entry, species assumed): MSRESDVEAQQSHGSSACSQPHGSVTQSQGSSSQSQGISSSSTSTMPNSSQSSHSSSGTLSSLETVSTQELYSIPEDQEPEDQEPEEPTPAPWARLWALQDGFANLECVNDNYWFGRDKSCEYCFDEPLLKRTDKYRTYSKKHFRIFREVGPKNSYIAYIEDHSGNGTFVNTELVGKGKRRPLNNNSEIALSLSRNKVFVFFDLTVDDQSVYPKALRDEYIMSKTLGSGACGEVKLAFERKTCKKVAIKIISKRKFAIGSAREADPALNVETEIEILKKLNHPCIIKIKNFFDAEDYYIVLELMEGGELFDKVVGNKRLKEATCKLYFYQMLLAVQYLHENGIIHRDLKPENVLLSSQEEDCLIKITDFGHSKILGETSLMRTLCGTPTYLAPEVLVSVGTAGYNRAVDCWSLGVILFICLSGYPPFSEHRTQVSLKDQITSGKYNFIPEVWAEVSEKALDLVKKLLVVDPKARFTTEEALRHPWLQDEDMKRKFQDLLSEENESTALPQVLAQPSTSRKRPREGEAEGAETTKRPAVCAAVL
Chain of cdc2 (P06493 whole entry, species assumed): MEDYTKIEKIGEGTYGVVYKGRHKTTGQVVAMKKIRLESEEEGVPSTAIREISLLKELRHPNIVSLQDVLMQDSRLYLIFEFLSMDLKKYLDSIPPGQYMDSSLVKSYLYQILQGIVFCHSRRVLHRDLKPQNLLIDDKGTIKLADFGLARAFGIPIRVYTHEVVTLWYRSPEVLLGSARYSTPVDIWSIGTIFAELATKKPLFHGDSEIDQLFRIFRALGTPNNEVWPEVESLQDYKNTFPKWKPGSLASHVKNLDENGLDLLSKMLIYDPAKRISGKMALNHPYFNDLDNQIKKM
Chain of cdc2 (P14635 whole entry partner, species assumed): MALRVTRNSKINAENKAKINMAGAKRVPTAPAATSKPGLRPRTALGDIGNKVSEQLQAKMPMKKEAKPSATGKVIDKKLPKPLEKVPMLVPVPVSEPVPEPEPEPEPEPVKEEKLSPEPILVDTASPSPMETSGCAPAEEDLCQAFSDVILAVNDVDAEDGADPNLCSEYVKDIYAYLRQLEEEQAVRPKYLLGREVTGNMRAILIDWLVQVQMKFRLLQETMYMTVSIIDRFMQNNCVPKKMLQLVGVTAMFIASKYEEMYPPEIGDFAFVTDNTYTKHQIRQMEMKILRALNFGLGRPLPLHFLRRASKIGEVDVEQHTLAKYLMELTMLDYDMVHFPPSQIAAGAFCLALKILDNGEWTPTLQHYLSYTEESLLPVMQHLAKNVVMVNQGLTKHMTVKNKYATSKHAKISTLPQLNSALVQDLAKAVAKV

As a reminder, the pIC50 is −log10 of the IC50, conventionally taken in molar units. Turning to `CN(C)CC(C)(C)COc1ccc2[nH]c(-c3cc(NC(=O)c4cnn(Cc5ccccc5)c4)c[nH]c3=O)cc2c1` [V158411], the values for the pIC50 at Chk2 and at Chk1 were 8.60 and 8.46, respectively.
Take `O=C1NC(=O)c2c1c1c3ccccc3n3c1c1c2c2ccccc2n1C1CCC3O1` [SB-218078]: the pIC50 in the series with PKC is 6.00; at Chk1, 7.82; at cdc2, 6.60.
